Here are results for 2 substances from US20220273754A1, “SS-31 FOR THE PREVENTION AND/OR TREATMENT OF ANEURYSM” (FUNDACIÓ INSTITUT DE RECERCA DE L'HOSPITAL DE LA SANTA CREU …, priority 2019, published 2022).

Non-standard residues stand in square brackets, D forms with d. No end group written: not given here.

The test system of assay [1] is ApoE−/− mice infused with Ang II. Kind of assay: Survival of Ang II-infused ApoE−/− mice. In kind it is in vivo. Particulars: 3 mg/kg/day with Ang II 1000 ng/kg/min by osmotic minipump, 28 days. Here is the method: (§1) The studies were developed in ApoE^−/− mice bred in the facility. The animals were infused with Ang II dissolved in saline (1000 ng/kg/min) by means of osmotic minipumps (model 1004, Alzet) implanted subcutaneously in the interscapular space of the mice previous anesthesia with isoflurane. The procedure lasted approximately 15 minutes per animal. Immediately after surgery, antibiotics (penicillin, 22,000 u/Kg, i.m.) and analgesics (buprenorphine 0.05 mg/Kg, i.m.) were administered to prevent infections and limit discomfort in the animals. Further, mice were kept on a heating pad until they woke up after surgery and were carefully monitored during the post-surgery period.
(§2) A group of mice infused with Ang II were treated with SS-31 in the form of chloride and dissolved in saline (3 mg/kg/day). Another group of animals infused with Ang II were treated with the SS-20 peptide also in the form of chloride, dissolved in saline and at the same dose. Both were administered together with Ang II by osmotic mini pump during the whole study (28 days). The control group consisted of ApoE^−/− mice infused with saline.

For the next assay, the system named is MMP9. Kind of assay: MMP9 mRNA by real-time PCR in abdominal aorta of Ang II-infused ApoE−/− mice. The format is in vivo. The following applies: 3 mg/kg/day with Ang II 1000 ng/kg/min, 28 days; normalized to GAPDH. Here is the method: as §1
(§3) A group of mice infused with Ang II were treated with SS-31 in the form of chloride and dissolved in saline (3 mg/kg/day). Another group of animals infused with Ang II were treated with the SS-20 peptide also in the form of chloride, dissolved in saline and at the same dose. Both were administered together with Ang II by osmotic mini pump during the whole study (28 days). The control group consisted of ApoE^−/− mice infused with saline. […]
(§4) The expression levels (mRNA) of the metalloproteinases MMP2 and MMP9 in the abdominal aortas of the different study groups were also analyzed. […]
In general terms: Real-time PCR tracks product formation cycle by cycle.

The next assay deals with MMP2. Description: MMP2 mRNA by real-time PCR in abdominal aorta of Ang II-infused ApoE−/− mice. The format is in vivo. Particulars: 3 mg/kg/day with Ang II 1000 ng/kg/min, 28 days; normalized to GAPDH. Here is the method:
as §1, §3, §4

Assay [2] relates to reactive oxygen species (ROS) production and lipid peroxidation. The following applies: direct inhibition; cited from earlier work.
A further assay has as its system diabetic rats. The following applies: cited from earlier work; for body weight: diabetic rats; for lipid metabolism: rat, in vivo.
Assay [3] concerns abdominal aorta of ApoE−/− mice infused with Ang II. Kind of assay: Histology (Masson's trichrome, orcein) of abdominal aorta of Ang II-infused ApoE−/− mice. The format is in vivo. The following applies: 3 mg/kg/day with Ang II 1000 ng/kg/min, 28 days. Here is the method:
as §1, §2
(§5) After 4 weeks, the animals were euthanized under intraperitoneal terminal anesthesia with a mixture of medetomidine (1 mg/kg) and ketamine (75 mg/kg) in saline (final volume of 200 μl), the aortas were collected immediately, examined to determine the presence of aneurysms and fixed in paraformaldehyde or frozen in liquid nitrogen for subsequent RNA extraction.

Assay [4] has as its system ApoE−/− mice infused with Ang II. Description: Aortic diameter and aneurysm incidence by ultrasonography in Ang II-infused ApoE−/− mice. In kind it is in vivo. Particulars: 28 days; for aortic diameter: 3 mg/kg/day with Ang II 1000 ng/kg/min by osmotic minipump, ultrasonography and macroscopic visualization; for incidence of AAA: 3 mg/kg/day with Ang II 1000 ng/kg/min, aneurysmal = external diameter >= 1.5 mm. Here is the method: as §1, §2
The diameter of the aorta was evaluated weekly by abdominal echography using an ultrasound equipment (Vevo2100 Imaging systems; Visualsonics) with a 30 MHz transducer. The mice were anesthetized by inhalation of 1.5% isofluorane and secured in supine position on a thermal platform. After shaving the precord region, the transducer was applied to the abdominal wall to measure the abdominal aorta. Those abdominal aortas with external diameters greater than or equal to 1.5 mm were considered aneurysmal. All measurements were made from the captured images using the analysis software provided by Visualsonics.
as §5

Assay [5] deals with myocardial contractile force during ischemia-reperfusion. Particulars: SS-20 given after ischemia; cited from earlier work.
The subject of assay [6] is mitochondrial permeability transition. The following applies: cited from earlier work.
Assay [7] has as its system renal mitochondrial respiration. The following applies: after ischemia; cited from earlier work.
For assay [8], the system named is humans and rodents maintained on a high fat diet. The following applies: cited from earlier work.
Assay [9] deals with mitochondrial swelling and cytochrome c release. The following applies: cited from earlier work.
The test system of assay [10] is angiotensin II (AngII)-induced cardiac hypertrophy. The following applies: in vivo; cited from earlier work.

For F[dR]FK-NH2 [SS-20], in assay [1], the survival rate result is “did not modify the survival rate”. In addition, the “aortic MMP9 expression (mRNA)” value in the assay with MMP9 is listed as “did not modify the increase in the mRNA level”. In the assay on MMP2, the “aortic MMP2 expression (mRNA)” value is recorded as “did not modify the increase in the mRNA level”. In assay [2], the “ROS production and lipid peroxidation” value is “only SS-31 was demonstrated to directly inhibit”. For the same substance, in the assay with diabetic rats, the body weight result is “useful in reducing body weight” and the lipid metabolism entry was “beneficial effects on lipid metabolism”. In addition, in assay [3], the “disorganization and rupture of elastic fibers (orcein staining)” value is recorded as “not observed in animals treated with SS-20”; the “vascular remodeling: collagen deposition (Masson's trichrome)” value is listed as “not by treatment with SS-20”. Also, in assay [4], the aortic diameter entry is “could not attenuate this increase in the aortic diameter” and the “incidence of AAA” value is recorded as “did not alter the aortic diameter nor the incidence of aneurysms”. Moreover, in assay [5], the “protection of myocardial contractile force” value is “offered no protection”. In assay [6], the mitochondrial permeability transition entry is reported as “inhibits mitochondrial permeability transition”. In [7], the renal mitochondrial respiration entry is “significantly improved renal mitochondrial respiration”.

Regarding “D-Arg-2′,6′-dimethyltyrosine-Lys-Phe-NH2 [SS-31]”, the survival rate entry in assay [1] was “significantly improved the survival rate”. Besides, in the assay with MMP9, the “aortic MMP9 expression (mRNA)” value is “attenuated this effect”. In addition, in the assay with MMP2, the “aortic MMP2 expression (mRNA)” value was “attenuated this effect”. Moreover, in assay [2], the “ROS production and lipid peroxidation” value is “directly inhibit reactive oxygen species (ROS) production and lipid peroxidation”. In addition, in the assay with diabetic rats, the body weight result is listed as “useful in reducing body weight” and the lipid metabolism entry is “beneficial effects on lipid metabolism”. Also, in [3], the “disorganization and rupture of elastic fibers (orcein staining)” value is “limited the disorganization and rupture of elastic fibers”; the “vascular remodeling: collagen deposition (Masson's trichrome)” value is recorded as “attenuated by treatment with SS-31”. Besides, in assay [4], the aortic diameter entry is on record as “reduced the increase in aortic diameter significantly” and the “incidence of AAA” value is reported as “significantly decreased the incidence of AAA”. The “protection of myocardial contractile force” value in assay [5] is “protects myocardial contractile force”. In addition, the mitochondrial permeability transition result in [6] is recorded as “inhibits mitochondrial permeability transition”. In assay [8], the insulin resistance entry was “attenuates insulin resistance”. Moreover, in [9], the “mitochondrial swelling and cytochrome c release” value was “inhibits mitochondrial swelling and cytochrome c release”. The renal mitochondrial respiration entry in assay [7] is “significantly improved renal mitochondrial respiration”. Also, in assay [10], the “AngII-induced cardiac hypertrophy, fibrosis and diastolic dysfunction” value was “ameliorates”.
